From US8629150B2, “Compounds for the treatment of hepatitis C” (priority 2011, dated 2014)

System: HCV pseudoparticles (genotype 1a HCV E1 and E2 envelope, H77C isolate)
Test: HCV pseudoparticle infection assay (luciferase, Huh7 cells)
Assay type: cell-based, HCV genotype 1a (H77C isolate)
Conditions: HCV pseudoparticle entry into Huh7 cells, luciferase 2 days after infection
[1] = Hepatitis C virus, Huh-7, 48 h, average of duplicates
[2] = Hepatitis C virus, Huh-7, 48 h, class symbol

CC1(C)CCNC(=O)c2ccc(cc2)Nc2cc(nc(OCC(F)(F)F)n2)NCc2ccc(cc2)OCCCN1 [Compound 1001]
EC50 (average of duplicates): 907 nM
EC50 (class symbol): 100 to 1000 nM

O=C1NCCCOCCCCOCCCNc2cc(nc(OCC(F)(F)F)n2)Nc2ccc1cn2 [Compound 1002]
EC50 [1]: 215 nM
EC50 [2]: 100 to 1000 nM

CC1(C)CNCCCOc2ccc(cc2)CNc2cc(nc(OCC(F)(F)F)n2)Nc2ccc(cn2)C(=O)NC1 [Compound 1003]
EC50 [1]: 0.21 nM
EC50 [2]: < 100 nM

C=C1CNCC(C)(C)CNC(=O)c2ccc(nc2)Nc2cc(nc(OCC(F)(F)F)n2)NCc2ccc(cc2)OC1 [Compound 1004]
EC50 [1]: 0.49 nM
EC50 [2]: < 100 nM

CC1CNCC(C)(C)CNC(=O)c2ccc(nc2)Nc2cc(nc(OCC(F)(F)F)n2)NCc2ccc(cc2)OC1 (centres unmarked) [Compound 1005]
EC50 [1]: 0.38 nM
EC50 [2]: < 100 nM

C[C@H]1CNCC(C)(C)CNC(=O)c2ccc(nc2)Nc2cc(nc(OCC(F)(F)F)n2)NCc2ccc(cc2)OC1 [Compound 1006]
EC50 [1]: 0.45 nM
EC50 [2]: < 100 nM

C[C@@H]1CNCC(C)(C)CNC(=O)c2ccc(nc2)Nc2cc(nc(OCC(F)(F)F)n2)NCc2ccc(cc2)OC1 [Compound 1007]
EC50 [1]: 0.19 nM
EC50 [2]: < 100 nM

CC1(C)CNCCCOc2ccc(cc2)CNc2cc(nc(OCC(F)(F)F)n2)Nc2ccc(cc2)C(=O)NC1 [Example 2001]
EC50 [1]: 1.34 nM
EC50 [2]: < 100 nM

CC1(C)CNCCCOc2ccc(c(F)c2)CNc2cc(nc(OCC(F)(F)F)n2)Nc2ccc(cc2)C(=O)NC1 [Example 2002]
EC50 [1]: 0.81 nM
EC50 [2]: < 100 nM

CC1(C)CNCCCOc2ccc(cc2F)CNc2cc(nc(OCC(F)(F)F)n2)Nc2ccc(cc2)C(=O)NC1 [Example 2003]
EC50 [1]: 0.76 nM
EC50 [2]: < 100 nM

O=C1NCC2(CC2)CNCCCOc2ccc(cc2)CNc2cc(nc(OCC(F)(F)F)n2)Nc2ccc1cc2 [Example 2004]
EC50 [1]: 396 nM
EC50 [2]: 100 to 1000 nM

C[C@H]1CNCCCOc2ccc(cc2)CNc2cc(nc(OCC(F)(F)F)n2)Nc2ccc(cc2)C(=O)NC1 [Example 2005]
EC50 [1]: 184 nM
EC50 [2]: 100 to 1000 nM

CC1(C)CCNC(=O)c2ccc(cc2)Nc2cc(nc(OCC(F)(F)F)n2)NCc2ccc(cc2)OCCCN1 [Example 2006]
EC50 (average of duplicates): 326 nM
EC50 [2]: 100 to 1000 nM
